In series [1] the test system is white ears in paddy. As to the kind of experiment: Field trial on white ears in paddy, number of white ears per plot. Type of series: in vivo.
For series [2], the system named is stem borer. As to the kind of experiment: Field trial of the combination on stem borer in paddy, % mortality. Format: in vivo. As for the experimental part: Trials were conducted to test the efficacy of the combination of Chlorantraniliprole+Dinotefuran+Pymetrozine on stem borer in paddy: […]
The format of series [3] is in vivo. The conditions noted are these: paddy.

Like-named read-outs stand apart in the source and are kept apart here.

Regarding `CNC(=O)c1cc(Cl)cc(C)c1NC(=O)c1cc(Br)nn1-c1ncccc1Cl` [Chlorantraniliprole, 3-bromo-4′-chloro-1-(3-chloro-2-pyridyl)-2′-methyl-6′-(methylcarbamoyl)pyrazole-5-carboxanilide], in series [1] (dose 30 gm. ai/ha), the “Number of white ears per plot 7 DAA” value is on record as 5, the “Number of white ears per plot 14 DAA” value was 7 and the “Number of white ears per plot 21 DAA” value worked out at 14. Further, in series [2] (dose 30 gm. ai/ha), the “% mortality 3 DAA” value stood at 3%, the “% mortality 7 DAA” value was found to be 7%, the “% mortality 10 DAA” value is 7.9% and the “% mortality 14 DAA” value is given as 6.9%. The compound further came in with a Yield in series [3] (dose 30 gm. ai/ha) of 4322.

Turning to `CC1=NNC(=O)N(/N=C/c2cccnc2)C1` [Pymetrozine], in series [1] (dose 150 gm. ai/ha), the “Number of white ears per plot 7 DAA” value is given as 12, the “Number of white ears per plot 14 DAA” value is 22 and the “Number of white ears per plot 21 DAA” value came to 43. In addition, in series [2] (dose 150 gm. ai/ha), the “% mortality 3 DAA” value is recorded as 75%, the “% mortality 7 DAA” value came out at 88%, the “% mortality 10 DAA” value is listed as 89% and the “% mortality 14 DAA” value was determined as 79%. For the same compound, the Yield in series [3] (dose 150 gm. ai/ha) is recorded as 3600.

With `CNC(=N[N+](=O)[O-])NCC1CCOC1` (racemic) [Dinotefuran, (EZ)—(RS)-1-methyl-2-nitro-3-(tetrahydro-3-furylmethyl)guanidine], in series [1] (dose 40 gm. ai/ha), the “Number of white ears per plot 7 DAA” value came to 11, the “Number of white ears per plot 14 DAA” value is 19 and the “Number of white ears per plot 21 DAA” value was determined as 41. Besides, in series [2] (dose 40 gm. ai/ha), the “% mortality 3 DAA” value turned out to be 65%, the “% mortality 7 DAA” value is listed as 75%, the “% mortality 10 DAA” value came to 75% and the “% mortality 14 DAA” value was found to be 70%. The Yield in series [3] (dose 40 gm. ai/ha) came to 3500.

The record behind these values is patent US20210267207A1, “NOVEL AGROCHEMICAL COMBINATIONS” (priority 2018, published 2021).
